According to patent publication US20110053897A1 (IRM LLC, priority 2009, published 2011):
Read-outs that look alike come from different tables or passages of the source.

Target: T1, Syk kinase (Homo sapiens, UniProt P43405)
T1 construct: purchased
Experiment: Syk kinase inhibition, Caliper LabChip off-chip mobility-shift kinase assay
Assay type: biochemical
Settings: read-out: Syk Enzyme IC50
Outline: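 Purified Syk pre-incubated 15 min with compound in 100 mM HEPES pH 7.5, 1 mM DTT, 10 mM MgCl2 or MnCl2, 0.002% Brij-35, then 1.5 μM fluorescein peptide and ATP at apparent KM added; 1–1.5 h at room temperature, 4% DMSO, EDTA stop. Microfluidic mobility-shift product/substrate conversion gave % inhibition; IC50 from 12-point series (10–0.00003 μM) by 4-parameter fit.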

IC50 (Caliper LabChip assay) [nM] | IC50 [nM] | Structure (SMILES)
14 |  | N#CCCn1ccc2cc(Nc3cnccn3)nc(N[C@H]3CC[C@@H](O)CC3)c2c1=O [compound 1002]
 | 28 | Cc1cc(Nc2nc(-c3cnc(N)c(C)c3)cc3cc[nH]c(=O)c23)ccc1C1CCN(CCC#N)CC1 [compound 69]
 | 11 | COc1cncc(-c2cc3cc[nH]c(=O)c3c(Nc3ccc(C4CCN(C5CCCC5)CC4)c(C)c3)n2)n1 [compound 62]
483 |  | CCn1ccc2cc(Nc3cnccn3)nc(N[C@@H]3CCC[C@H]3O)c2c1=O [compound 940]
 | 155 | C[C@@H](CO)Nc1nc(Nc2ccccn2)cc2cc[nH]c(=O)c12 [compound 298]
 | 63 | CCc1ccnc(Nc2cc3cc[nH]c(=O)c3c(NC(C)C)n2)c1 [compound 491]
11 |  | O=c1c2c(N[C@H]3CC[C@@H](O)CC3)nc(Nc3cnccn3)cc2ccn1CC(F)F [compound 1022]
 | 45 | Cc1ccnc(Nc2cc3cc[nH]c(=O)c3c(NC3CCC3)n2)c1 [compound 485]
 | 206 | Cc1ccnc(Nc2cc3cc[nH]c(=O)c3c(NC3CC3)n2)c1 [compound 535]
 | 102 | Cc1ccc(-c2cc3cc[nH]c(=O)c3c(Nc3ccc(CCN4CCCN(C)CC4)cc3)n2)cn1 [compound 437]
866 |  | CC(C)(C)Nc1nc(Nc2cc(C(=O)N3CCCC(CO)C3)ccn2)cc2ccn(CCO)c(=O)c12 (stereo not drawn) [compound 688]
14 |  | CC(O)Cn1ccc2cc(-c3cnc(N)nc3)nc(NC(C)(C)C)c2c1=O (stereo not drawn) [compound 927]
186 |  | Cc1ccnc(Nc2cc3ccn(CCO)c(=O)c3c(Nc3ccc(C(=O)N4CCOCC4)c(C)c3)n2)c1 [compound 650]
 | 233 | COc1ccc(Nc2nc(Nc3cc(C)ccn3)cc3cc[nH]c(=O)c23)cc1OC [compound 371]
 | 128 | CCn1ccc2cc(Nc3cnccn3)nc(N[C@H]3CCCC[C@H]3O)c2c1=O (racemic) [compound 409]
 | 5 | CNC(C)(C)C(=O)N1CCC(c2ccc(Nc3nc(-c4cncc(OC)n4)cc4cc[nH]c(=O)c34)cc2C)CC1 [compound 84]
 | 496 | Cc1ccnc(Nc2cc3ccn(C)c(=O)c3c(Nc3ccc(C4CCN(CCS(C)(=O)=O)CC4)cc3)n2)c1 [compound 311]
50 |  | CCn1ccc2cc(Nc3cnccn3)nc(N[C@H]3CC[C@H](O)CC3)c2c1=O [compound 949]
 | 496 | COc1cncc(-c2cc3cc[nH]c(=O)c3c(Nc3ccc(C4CCN(C(=O)N(C)C)CC4)c(C)c3)n2)n1 [compound 177]
94 |  | COC/C=C/c1cc(Nc2cc3ccn(CCO)c(=O)c3c(NC(C)(C)C)n2)ncn1 [compound 621]
12 |  | CC(O)c1ccnc(Nc2cc3ccn(CCO)c(=O)c3c(NC(C)(C)C)n2)c1 (stereo not drawn) [compound 700]
 | 3850 | Cc1ccc(Nc2cc3cc[nH]c(=O)c3c(Nc3ccc(N4CCOCC4)cc3)n2)nc1 [compound 545]
314 |  | CC(C)(C)Nc1nc(Nc2cc(-c3c[nH]nc3C(F)(F)F)ncn2)cc2ccn(CCO)c(=O)c12 [compound 635, 8-(tert-butylamino)-2-(2-hydroxyethyl)-6-(6-(3-(trifluoromethyl)-1H-pyrazol-4-yl)pyrimidin-4-ylamino)-2,7-naphthyridin-1(2H)-one]
66 |  | CC1(Cn2ccc3cc(-c4cnc(N)nc4)nc(NC4CCOCC4)c3c2=O)COC1 [compound 769]
 | 803 | CNS(=O)(=O)c1ccc(Nc2nc(Nc3cnccn3)cc3ccn(C)c(=O)c23)cc1 [compound 350]
29 |  | Cn1ccc2cc(Nc3nccc(O)n3)nc(N[C@H]3CC[C@H](O)CC3)c2c1=O [compound 799]
 | 2500 | O=C(N1CC2CC(C1)c1cc(Nc3nc(-c4cnccn4)cc4cc[nH]c(=O)c34)ccc12)C(F)(F)F (stereo not drawn) [compound 97]

IC50 (Caliper LabChip assay) [nM] | IC50 [nM] | Structure (SMILES)
283 |  | CC(C)(C)Nc1nc(Nc2cc(C(C)(C)O)c(Cl)cn2)cc2ccn(CCO)c(=O)c12 [compound 728]
 | 143 | O=c1[nH]ccc2cc(Nc3ccccn3)nc(Nc3ccc(N4CCOCC4)cc3)c12 [compound 509]
 | 155 | Cn1ccc2cc(Nc3cnccn3)nc(NC(C)(C)CO)c2c1=O [compound 472]
 | 226 | CCN1CCN(CCc2ccc(Nc3nc(Nc4cc(C(=O)O)ccn4)cc4cc[nH]c(=O)c34)cc2)CC1 [compound 586]
459 |  | CC(C)(C)Nc1nc(Nc2cnccn2)cc2ccn(CC(O)C(F)(F)F)c(=O)c12 (stereo not drawn) [compound 1011]
 | 287 | COc1cncc(-c2cc3cc[nH]c(=O)c3c(Nc3ccc(C4CCN(C5COC5)CC4)c(C)c3)n2)n1 [compound 164]
12 |  | CC(C)(C)Nc1nc(Nc2cnccn2)cc2cc[nH]c(=O)c12 [compound 679]
 | 242 | CC(=O)c1cc2cc[nH]c(=O)c2c(Nc2ccc(C3CCNCC3)c(C)c2)n1 [compound 232]
19 |  | O=c1c2c(N[C@H]3CC[C@@H](O)CC3)nc(Nc3cnccn3)cc2ccn1C1COC1 [compound 1009]
 | 82 | C[C@@H](O)CNc1nc(Nc2cnccn2)cc2ccn(C)c(=O)c12 [compound 470]
147 |  | CCn1ccc2cc(Nc3cnccn3)nc(N[C@H](C)CO)c2c1=O [compound 963]
431 |  | CO/N=C(\C)c1ccnc(Nc2cc3ccn(CCO)c(=O)c3c(NC(C)(C)C)n2)c1 [compound 695]
106 |  | CCn1ccc2cc(Nc3cnccn3)nc(NC3(CO)CC3)c2c1=O [compound 797]
 | 967 | Cc1ccnc(Nc2cc3cc[nH]c(=O)c3c(N3CC[C@@H](O)C3)n2)c1 [compound 401]
18 |  | [2H]C([2H])([2H])n1ccc2cc(Nc3cnccn3)nc(NC3CC3)c2c1=O [compound 824]
10 |  | CC(C)(C)Nc1nc(-c2cnc(N)nc2)cc2ccn(CC3(CO)COC3)c(=O)c12 [compound 923]
 | 32 | COc1cncc(-c2cc3cc[nH]c(=O)c3c(Nc3ccc(C4CN(CCC#N)C4)cc3)n2)n1 [compound 153]
 | 1610 | CCOCCOc1cccc(Nc2nc(Nc3cc(C)ccn3)cc3ccn(C)c(=O)c23)c1 [compound 335]
 | 203 | CC(CO)Nc1nc(-c2cnc(N)nc2)cc2cc[nH]c(=O)c12 (stereo not drawn) [compound 183]
 | 324 | CCn1ccc2cc(Nc3cc(C)ccn3)nc(N[C@H]3CCCC[C@H]3O)c2c1=O (racemic) [compound 408]
 | 301 | CCn1ccc2cc(Nc3cnccn3)nc(N[C@H]3CCCC[C@@H]3O)c2c1=O (racemic) [compound 407]
60 |  | CC(C)(C)Nc1nc(-c2cnc(N)nc2)cc2ccn(CCN3CCOCC3)c(=O)c12 [compound 1033]
60 |  | Cc1cc(Nc2cc3ccn(CCO)c(=O)c3c(NC(C)(C)C)n2)ncn1 [compound 886]
 | 59 | Nc1ncc(-c2cc3cc[nH]c(=O)c3c(N[C@@H]3CCC[C@H]3O)n2)cn1 [compound 184]
7 |  | CC(C)(C)Nc1nc(Nc2c[n+]([O-])ccn2)cc2ccn(C[C@H](O)CO)c(=O)c12 [compound 674]
204 |  | CC1(O)CN(c2cc(Nc3cc4ccn(CCO)c(=O)c4c(NC(C)(C)C)n3)ncn2)C1 [compound 630, 8-(tert-butylamino)-6-(6-(3-hydroxy-3-methylazetidin-1-yl)pyrimidin-4-ylamino)-2-(2-hydroxyethyl)-2,7-naphthyridin-1(2H)-one]
89.9 |  | [2H]C([2H])([2H])n1ccc2cc(Nc3cc(C)c(F)cn3)nc(NC(C)(C)CO)c2c1=O [compound 1049]
